{
  "source": "patent EP0573652A1",
  "about": "“REMEDY FOR RENAL DISEASES” (FUJISAWA PHARMACEUTICAL CO., LTD., priority 1991, dated 1992)",
  "key": {"cynomolgus monkeys [1]": {"system": "cynomolgus monkeys", "experiment": "Effects on increasing renal blood flow (anesthetized, furosemide-pretreated monkeys, electromagnetic blood flowmeter)", "format": "in vivo", "details": "Dose 0.32 mg/kg intravenously; anesthetized cynomolgus monkeys given furosemide", "description": "Male and female cynomolgus monkeys weighing 2.0-4.8 kg were fed with conventional diet were given furosemide 10 mg/kg subcutaneously and 5 mg/kg intravenously on the previous day and the day of dosing with the test compound respectively. The animals were anesthetized with sodium pentobarbital (20 mg/kg, i.v.) and were maintained at a stable anesthetic level by continuous infusion of the anesthetic at a rate of 6 mg/kg/hr. After fixing the animals on the bench at 37°C, right femoral artery was catheterized for recording of the mean arterial blood pressure using a pressure transducer and left femoral vein was also catheterized for injection of the drug. Left renal artery was installed with an electromagnetic probe for recording renal blood flow using an electromagnetic blood flowmeter. When blood pressure, heart rate and renal blood flow, became sufficiently stable, the test compound dissolved in physiological saline was intravenously given at a rate of 0.2 ml/kg."}, "cynomolgus monkeys [2]": {"system": "cynomolgus monkeys", "experiment": "Diuretic effects (urine volume, urinary electrolytes, renal plasma flow, glomerular filtration rate in anesthetized monkeys)", "format": "in vivo", "details": "at 15 min. after dosing, Control : 100%; for Increasing % of glomerular filtration rate: calculated from inulin concentrations; for Increasing % of renal plasma flow: calculated from paraaminohypuric acid concentrations", "description": "Female cynomolgus monkeys weighing 3.2 - 3.9 kg were anesthetized with sodium pentobarbital (20 mg/kg, i.v.) and were maintained at a stable anesthetic level by continuous infusion of the anesthetic at a rate of 4 mg/kg/hr, and then right saphenous vein was catheterized for intravenous infusion. […] Under monitoring blood pressure, urine samples were taken from bladder by catheter and blood samples were taken from right brachial vein. After 90 min. when urine volume, blood, paraaminohypuric acid and inulin concentrations became stable, blood and urine samples were taken to measure concentrations of paraaminohypuric acid and inulin 45 min. before and 15, 30, 45 and 60 min. after dosing with the test compound. Urine volume and urinary electrolytes were measured and the renal plasma flow and glomerular filtration rate values were calculated from respective paraaminohypuric acid and inulin concentrations in the blood and urine samples."}, "Acute toxicity test": {"experiment": "Acute toxicity test", "design": "species or system rats (Crj:CD(SD) strain)", "details": "Crj:CD(SD), rat, in vivo, iv, intravenously, observed for 14 days, probit method, read-out: LD₅₀", "description": "Five rats (Crj:CD(SD) strain) of either sex were used per group. Solutions of the test compound in physiological saline were administered to rats intravenously. The rats were then observed for 14 days. The LD₅₀ values were calculated by the probit method."}},
  "note": "Read-outs that look alike come from different tables or passages of the source.",
  "data": [
    {"smiles": "CC(C)CC[C@H](O)[C@H](CC1CCCCC1)NC(=O)[C@H](Cc1c[nH]cn1)N(C)C(=O)[C@H](Cc1ccccc1)OC(=O)N(C)CCC(=O)N1CCOCC1.Cl", "note": "[(1), 2(S)-[N^α-[2(S)-{N-(2-morpholinocarbonylethyl)-N-methylaminocarbonyloxy}-3-phenylpropionyl]-N^α-methyl-L-histidyl]amino-1-cyclohexyl-3(S)-hydroxy-6-methylheptane hydrochloride]", "values": [
      {"measurement": "Maximum decreasing % of renal vascular resistance", "setting": "cynomolgus monkeys [1]", "value": "+19.3%"},
      {"measurement": "Maximum increasing % of renal blood flow", "setting": "cynomolgus monkeys [1]", "value": "+17.1%"},
      {"measurement": "Increasing % of Cl⁻ excretion", "setting": "cynomolgus monkeys [2]; Dose 3.2 mg/kg", "value": 417, "unit": "%"},
      {"measurement": "Increasing % of K⁺ excretion", "setting": "cynomolgus monkeys [2]; Dose 3.2 mg/kg", "value": 135, "unit": "%"},
      {"measurement": "Increasing % of Na⁺ excretion", "setting": "cynomolgus monkeys [2]; Dose 3.2 mg/kg", "value": 223, "unit": "%"},
      {"measurement": "Increasing % of urine volume", "setting": "cynomolgus monkeys [2]; Dose 3.2 mg/kg", "value": 259, "unit": "%"},
      {"measurement": "Increasing % of glomerular filtration rate", "setting": "cynomolgus monkeys [2]; Dose 3.2 mg/kg", "value": 122, "unit": "%"},
      {"measurement": "Increasing % of renal plasma flow", "setting": "cynomolgus monkeys [2]; Dose 3.2 mg/kg", "value": 149, "unit": "%"},
      {"measurement": "LD50 at 14 days", "setting": "Acute toxicity test; Female rats", "value": 93.3, "unit": "mg/kg"},
      {"measurement": "LD50 at 14 days", "setting": "Acute toxicity test; Male rats", "value": 81.2, "unit": "mg/kg"}
    ]},
    {"smiles": "CC(C)CC[C@H](O)[C@H](CC1CCCCC1)NC(=O)[C@H](Cc1c[nH]cn1)N(C)C(=O)[C@H](Cc1ccccc1)OC(=O)N(C)CCN(C)C(=O)N1CCOCC1.Cl", "note": "[(2), 2(S)-[N^α-[2(S)-[N-methyl-N-[2-{N-(morpholinocarbonyl)-N-methylamino)ethyl]aminocarbonyloxy]-3-phenylpropionyl]-N^α-methyl-L-histidyl]amino-1-cyclohexyl-3(S)-hydroxy-6-methylheptane hydrochloride]", "values": [
      {"measurement": "Maximum decreasing % of renal vascular resistance", "setting": "cynomolgus monkeys [1]", "value": "+35.5%"},
      {"measurement": "Maximum increasing % of renal blood flow", "setting": "cynomolgus monkeys [1]", "value": "+33.8%"},
      {"measurement": "Increasing % of Cl⁻ excretion", "setting": "cynomolgus monkeys [2]; Dose 1.0 mg/kg", "value": 466, "unit": "%"},
      {"measurement": "Increasing % of K⁺ excretion", "setting": "cynomolgus monkeys [2]; Dose 1.0 mg/kg", "value": 169, "unit": "%"},
      {"measurement": "Increasing % of Na⁺ excretion", "setting": "cynomolgus monkeys [2]; Dose 1.0 mg/kg", "value": 205, "unit": "%"},
      {"measurement": "Increasing % of urine volume", "setting": "cynomolgus monkeys [2]; Dose 1.0 mg/kg", "value": 202, "unit": "%"},
      {"measurement": "Increasing % of glomerular filtration rate", "setting": "cynomolgus monkeys [2]; Dose 1.0 mg/kg", "value": 156, "unit": "%"},
      {"measurement": "Increasing % of renal plasma flow", "setting": "cynomolgus monkeys [2]; Dose 1.0 mg/kg", "value": 169, "unit": "%"},
      {"measurement": "LD50 at 14 days", "setting": "Acute toxicity test; Female rats", "value": 69, "unit": "mg/kg"},
      {"measurement": "LD50 at 14 days", "setting": "Acute toxicity test; Male rats", "value": 55, "unit": "mg/kg"}
    ]},
    {"smiles": "C[C@H](CS)C(=O)N1CCC[C@H]1C(=O)O", "note": "[(A), Captopril, reference compound]", "values": [
      {"measurement": "Maximum decreasing % of renal vascular resistance", "setting": "cynomolgus monkeys [1]", "value": "+11.5%"},
      {"measurement": "Increasing % of glomerular filtration rate", "setting": "cynomolgus monkeys [2]; Dose 3.2 mg/kg", "value": 114, "unit": "%"}
    ]}
  ]
}
